This is an account of results in ChEMBL document CHEMBL6092138, “Discovery of the potent covalent inhibitor with an acrylate warhead for SARS-CoV-2 3CL protease” (Bioorg Med Chem Lett, 2024).

SMILES strings stand for the structures.

In this assay the test system is SARS-CoV-2. As to the kind of experiment: Antiviral activity against replicon RNA harboring SARS-CoV-2 infected in human Huh-7 cells assessed as inhibition of viral replication. The assay is classed as functional, organism-based. Particulars: Severe acute respiratory syndrome coronavirus 2, Huh-7. (In antiviral work, replicon cells carry a viral genome segment that copies itself.)
Regarding `COC(=O)/C=C/[C@H](C[C@@H]1CCNC1=O)NC(=O)[C@@H]1[C@@H]2[C@H](CN1C(=O)[C@@H](NC(=O)C(F)(F)F)C(C)(C)C)C2(C)C`, the EC50 (in general, the concentration that produces a half-maximal response) amounted to 45 nM. `CC(C)(C)[C@H](NC(=O)C(F)(F)F)C(=O)N1C[C@H]2[C@@H]([C@H]1C(=O)N[C@H](/C=C/C(N)=O)C[C@@H]1CCNC1=O)C2(C)C`: the EC50 was over 5000 nM.

On to `CC(C)(C)[C@H](NC(=O)C(F)(F)F)C(=O)N1C[C@H]2[C@@H]([C@H]1C(=O)N[C@H](C#N)C[C@@H]1CCNC1=O)C2(C)C` [NIRMATRELVIR], for which the EC50 stood at 23 nM.
